This passage reports IC50, Tm and Activity results from ChEMBL document CHEMBL4765489, “A FabG inhibitor targeting an allosteric binding site inhibits several orthologs from Gram-negative ESKAPE pathogens” (Bioorg Med Chem, 2021).

Molecules are shown by their SMILES. Active and inactive are the calls of the source. The rule behind the calls is not given here.

Test [1] in a line: Inhibition of Acinetobacter baumannii N-terminal His6-tagged FabG expressed in Escherichia coli BL21 (DE3) using AcAcCoA as substrate assessed as NADPH consumption measured for 6 to 10 mins in presence of NADPH by spectrophotometric analysis.
Test [2] is described as follows: Inhibition of Salmonella typhimurium N-terminal His6-tagged FabG expressed in Escherichia coli BL21 (DE3) using AcAcCoA as substrate assessed as NADPH consumption measured for 6 to 10 mins in presence of NADPH by spectrophotometric analysis. Also on record: species or system Salmonella enterica subsp. enterica serovar Typhimurium.
A short description of test [3]: Inhibition of Escherichia coli N-terminal His6-tagged FabG expressed in Escherichia coli BL21 (DE3) using AcAcCoA as substrate assessed as NADPH consumption measured for 6 to 10 mins in presence of NADPH by spectrophotometric analysis.
Test [4] in a line: Inhibition of Klebsiella pneumoniae N-terminal His6-tagged FabG1 expressed in Escherichia coli BL21 (DE3) using AcAcCoA as substrate assessed as NADPH consumption measured for 6 to 10 mins in presence of NADPH by spectrophotometric analysis.
A short description of test [5]: Inhibition of Pseudomonas aeruginosa N-terminal His6-tagged FabG expressed in Escherichia coli BL21 (DE3) using AcAcCoA as substrate assessed as NADPH consumption measured for 6 to 10 mins in presence of NADPH by spectrophotometric analysis.
Test [6] in a line: Inhibition of Staphylococcus aureus N-terminal His6-tagged FabG expressed in Escherichia coli BL21 (DE3) using AcAcCoA as substrate assessed as NADPH consumption measured for 6 to 10 mins in presence of NADPH by spectrophotometric analysis.
Test [7] in a line: Inhibition of Acinetobacter baumannii N-terminal His6-tagged FabG expressed in Escherichia coli BL21 (DE3) using 3-OHdNAC as substrate assessed as NADPH formation incubated for 2 hrs in presence of NADP by fluorescence based analysis.
A short description of test [8]: Inhibition of Salmonella typhimurium N-terminal His6-tagged FabG expressed in Escherichia coli BL21 (DE3) using 3-OHdNAC as substrate assessed as NADPH formation incubated for 2 hrs in presence of NADP by spectrophotometric analysis. Also on record: species or system Salmonella enterica subsp. enterica serovar Typhimurium.
Test [9] has as its system Acinetobacter baumannii. The test is described as follows: Allosteric binding affinity to Acinetobacter baumannii N-terminal His6-tagged FabG expressed in Escherichia coli BL21 (DE3) assessed as melting temperature at 1 mM incubated for 15 mins by Sypro orange dye based differential scanning fluorimetry (reference value: 61.3 degreeC).
For another test, the system named is Escherichia coli. Briefly: Allosteric binding affinity to Escherichia coli N-terminal His6-tagged FabG expressed in Escherichia coli BL21 (DE3) assessed as protein destabilization by measuring decrease in melting temperature at 1 mM incubated for 15 mins by Sypro orange dye based differential scanning fluorimetry.
The subject of test [10] is Salmonella enterica subsp. enterica serovar Typhimurium. Briefly: Allosteric binding affinity to Salmonella typhimurium N-terminal His6-tagged FabG expressed in Escherichia coli BL21 (DE3) assessed as protein destabilization by measuring decrease in melting temperature at 1 mM incubated for 15 mins by Sypro orange dye based differential scanning fluorimetry.
In the next test the test system is Klebsiella pneumoniae. The test is described as follows: Allosteric binding affinity to Klebsiella pneumoniae N-terminal His6-tagged FabG expressed in Escherichia coli BL21 (DE3) assessed as protein destabilization by measuring decrease in melting temperature at 1 mM incubated for 15 mins by Sypro orange dye based differential scanning fluorimetry.
The next test has as its system Pseudomonas aeruginosa. The test is described as follows: Allosteric binding affinity to Pseudomonas aeruginosa N-terminal His6-tagged FabG expressed in Escherichia coli BL21 (DE3) assessed as protein destabilization by measuring decrease in melting temperature at 1 mM incubated for 15 mins by Sypro orange dye based differential scanning fluorimetry.
For a further test, the system named is Staphylococcus aureus. Briefly: Allosteric binding affinity to Staphylococcus aureus N-terminal His6-tagged FabG expressed in Escherichia coli BL21 (DE3) assessed as protein destabilization by measuring decrease in melting temperature at 1 mM incubated for 15 mins by Sypro orange dye based differential scanning fluorimetry.
The test system of test [11] is Acinetobacter baumannii. The test is described as follows: Allosteric binding affinity to Acinetobacter baumannii N-terminal His6-tagged FabG expressed in Escherichia coli BL21 (DE3) assessed as reduction in NADPH bound protein fraction at 100 to 500 uM by fluorescence based analysis. Conditions: dose 100-500 µM.

With `CCOC(=O)c1c(CN(C)C)n(-c2ccccc2)c2cc(Br)c(O)cc12`, the 50% inhibitory concentration (IC50) in test [1] stood at 64 µM; in [2], 12 µM; in test [3], 7 µM; in test [4] it was 13.8 µM; in test [5], 19.7 µM; in test [6], 70.7 µM. Further, the IC50 turned out to be 0.36 µM in test [7] and 35 µM in [8]. The Tm in the test with Acinetobacter baumannii [9] was determined as 58.5 °C. Further, the result (in the test on Escherichia coli; in test [10]; in the test with Klebsiella pneumoniae; in the test on Pseudomonas aeruginosa; with Staphylococcus aureus; in the test with Acinetobacter baumannii [11]) was Active.
Turning to `O=C(Nc1ccc(Br)cc1C(=O)O)c1cccs1`, the concentration for half-maximal inhibition (IC50) in test [1] is 33.4 µM; in [2] it was 175 µM; in [4], 186 µM; in test [5], 3.1 µM; in [8] it was 5.1 µM.
Turning to `O=c1[nH]c(SCc2c(Cl)cccc2Cl)nc2ccnn12`, the IC50 in [2] stood at 150 µM; in test [3] it was 19.9 µM; in [4], 137 µM; in [5], 30.9 µM; in [8] it was 22 µM.
